Test results reported in patent publication US20230159556A1, “NOVEL PROTEIN KINASE INHIBITORS” (TENOVA PHARMACEUTICALS INC., priority 2020, published 2023).

molecular target: T1, EGFR_L858R/T790M/C797S (Homo sapiens, UniProt P00533, C797S/L858R/T790M); test: In vitro biochemical kinase assay (33P-ATP filter-binding, Reaction Biology)
T1 construct: Reaction Biology Corporation (contract assay provider)
Protocol: The biochemical kinase assay was performed at Reaction Biology Corporation (www.reactionbiology.com, Malvern, Pa.) following procedures described in the reference (Anastassiadis, T, et al, Nature Biotechnology, 2011, 29, 1039). Base Reaction buffer includes 20 mM Hepes (pH 7.5), 10 mM MgCl2, 1 mM EGTA, 0.02% Brij35, 0.02 mg/ml BSA, 0.1 mM Na3VO4, 2 mM DTT and 1% DMSO. Required cofactors are added individually to each kinase reaction. Testing compounds were dissolved in 100% DMSO to specific concentration. The serial dilution was conducted by Integra Viaflo Assist in DMSO. Compounds in 100% DMSO are into the kinase reaction mixture by Acoustic technology (Echo550; nanoliter range), incubate for 20 min at room temperature, followed by ^33P-ATP and incubation for 2 hours at room temperature. Radioactivity was then detected by filter-binding method. Kinase activity data were expressed as the percent remaining kinase activity in test samples compared to vehicle (dimethyl sulfoxide) reactions. IC50 values and curve fits were obtained using Prism (GraphPad Software).

T1 sequence (P00533 25-1210 T790M/C797S/L858R): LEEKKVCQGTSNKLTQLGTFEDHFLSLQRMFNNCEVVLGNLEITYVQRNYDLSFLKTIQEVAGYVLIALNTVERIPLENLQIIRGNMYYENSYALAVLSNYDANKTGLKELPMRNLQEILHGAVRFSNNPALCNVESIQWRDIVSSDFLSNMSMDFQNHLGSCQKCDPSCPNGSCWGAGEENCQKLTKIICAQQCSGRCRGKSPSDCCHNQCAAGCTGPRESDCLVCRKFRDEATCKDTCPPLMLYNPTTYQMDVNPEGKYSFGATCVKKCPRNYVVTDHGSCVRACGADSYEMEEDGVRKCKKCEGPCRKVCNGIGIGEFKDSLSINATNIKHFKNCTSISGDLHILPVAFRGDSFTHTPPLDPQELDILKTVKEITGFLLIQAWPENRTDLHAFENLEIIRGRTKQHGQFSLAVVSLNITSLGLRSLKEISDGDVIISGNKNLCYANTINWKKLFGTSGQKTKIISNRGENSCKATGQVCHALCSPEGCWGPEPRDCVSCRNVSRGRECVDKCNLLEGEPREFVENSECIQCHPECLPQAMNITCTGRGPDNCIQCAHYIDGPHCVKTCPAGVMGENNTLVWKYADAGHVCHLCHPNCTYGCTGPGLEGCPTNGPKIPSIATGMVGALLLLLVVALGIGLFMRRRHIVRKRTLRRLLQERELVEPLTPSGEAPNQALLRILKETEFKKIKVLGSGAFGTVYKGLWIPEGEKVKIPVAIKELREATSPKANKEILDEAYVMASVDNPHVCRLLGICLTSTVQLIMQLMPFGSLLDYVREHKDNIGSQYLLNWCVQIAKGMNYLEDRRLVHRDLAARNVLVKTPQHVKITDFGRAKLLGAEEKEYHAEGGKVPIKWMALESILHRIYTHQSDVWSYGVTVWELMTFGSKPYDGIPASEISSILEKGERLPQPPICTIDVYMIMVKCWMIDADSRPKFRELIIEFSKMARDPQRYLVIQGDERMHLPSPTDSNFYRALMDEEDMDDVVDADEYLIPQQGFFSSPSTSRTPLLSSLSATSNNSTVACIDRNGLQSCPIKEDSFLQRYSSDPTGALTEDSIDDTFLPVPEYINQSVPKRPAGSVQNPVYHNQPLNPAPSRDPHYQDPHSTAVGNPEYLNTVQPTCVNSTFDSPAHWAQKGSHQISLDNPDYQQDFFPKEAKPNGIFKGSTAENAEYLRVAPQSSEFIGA

IC50 | Structure (SMILES)
503 nM | CC(C)Oc1cc(N2CCN(C)CC2)c2cc1Nc1ncc(Cl)c(n1)Nc1ccc(cc1N(C)S(C)(=O)=O)OCCCCC2 [Compound A22, N-(3^5-chloro-1^6-isopropoxy-1^4-(4-methylpiperazin-1-yl)-6-oxa-2,4-diaza-3(2,4)-pyrimidina-1(1,3),5(1,4)-dibenzenacycloundecaphane-5^2-yl)-N-methylmethanesulfonamide]
180 nM | COc1cc(N2CCC(N3CCN(C)CC3)CC2)c2cc1Nc1ncc(Cl)c(n1)Nc1ccc(cc1S(C)(=O)=O)OCCCCCC2 [Compound A19, 3^5-chloro-1^6-methoxy-1^4-(4-(4-methylpiperazin-1-yl)piperidin-1-yl)-5^2-(methylsulfonyl)-6-oxa-2,4-diaza-3(2,4)-pyrimidina-1(1,3),5(1,4)-dibenzenacyclododecaphane]
643 nM | COc1cc(N2CCN(C)CC2)c2cc1Nc1ncc(Cl)c(n1)Nc1ccc(cc1N(C)S(C)(=O)=O)OCCC2 [Compound A2, N-(3^5-chloro-1^6-methoxy-1^4-(4-methylpiperazin-1-yl)-6-oxa-2,4-diaza-3(2,4)-pyrimidina-1(1,3),5(1,4)-dibenzenacyclononaphane-5^2-yl)-N-methylmethanesulfonamide]
4.3 nM | COc1cc(N2CCC(N3CCN(C)CC3)CC2)c2cc1Nc1ncc(Cl)c(n1)Nc1ccc(cc1N(C)S(C)(=O)=O)OCCCCC(=O)N2 [Compound A40, N-(3^5-chloro-1^6-methoxy-1^4-(4-(4-methylpiperazin-1-yl)piperidin-1-yl)-11-oxo-6-oxa-2,4,12-triaza-3(2,4)-pyrimidina-1(1,3),5(1,4)-dibenzenacyclododecaphane-5^2-yl)-N-methylmethanesulfonamide]
82.2 nM | COc1cc(N2CCN(C)CC2)c2cc1Nc1ncc(Cl)c(n1)Nc1ccc(cc1N(C)S(=O)(=O)C(C)C)OCCCCC2 [Compound A17, N-(3^5-chloro-1^6-methoxy-1^4-(4-methylpiperazin-1-yl)-6-oxa-2,4-diaza-3(2,4)-pyrimidina-1(1,3),5(1,4)-dibenzenacycloundecaphane-5^2-yl)-N-methylpropane-2-sulfonamide]
0.6 nM | COc1cc(N2CCC(N3CCC(N(C)C)CC3)CC2)c2cc1Nc1ncc(Br)c(n1)Nc1ccc(cc1N(C)S(C)(=O)=O)OCCCCC2 [Compound A37, N-(3^5-bromo-1^4-(4-(dimethylamino)-[1,4′-bipiperidin]-1′-yl)-1^6-methoxy-6-oxa-2,4-diaza-3(2,4)-pyrimidina-1(1,3),5(1,4)-dibenzenacycloundecaphane-5^2-yl)-N-methylmethanesulfonamide]
17 nM | COc1cc(N2CCN(C)CC2)c2cc1Nc1ncc(F)c(n1)Nc1ccc(cc1N(C)S(C)(=O)=O)OCCCCC2 [Compound A11, N-(3^5-fluoro-1^6-methoxy-1^4-(4-methylpiperazin-1-yl)-6-oxa-2,4-diaza-3(2,4)-pyrimidina-1(1,3),5(1,4)-dibenzenacycloundecaphane-5^2-yl)-N-methylmethanesulfonamide]
10000 nM | COc1cc(N2CCN(C)CC2)c2cc1Nc1ncc(Cl)c(n1)Nc1ccc(cc1S(C)(=O)=O)OCCCC2 [Compound A6, 3^5-chloro-1^6-methoxy-1^4-(4-methylpiperazin-1-yl)-5^2-(methylsulfonyl)-6-oxa-2,4-diaza-3(2,4)-pyrimidina-1(1,3),5(1,4)-dibenzenacyclodecaphane]
0.6 nM | COc1cc(N2CCN(C)CC2)c2cc1Nc1ncc(Br)c(n1)Nc1ccc(cc1N(C)S(C)(=O)=O)OCCCCC2 [Compound A12, N-(3^5-bromo-1^6-methoxy-1^4-(4-methylpiperazin-1-yl)-6-oxa-2,4-diaza-3(2,4)-pyrimidina-1(1,3),5(1,4)-dibenzenacycloundecaphane-5^2-yl)-N-methylmethanesulfonamide]
0.4 nM | COc1cc(N2CCC(N3CCN(C)CC3)CC2)c2cc1Nc1ncc(Br)c(n1)Nc1ccc(cc1N(C)S(C)(=O)=O)CCC(=O)NCCC2 [Compound A41, N-(3^5-bromo-1^6-methoxy-1^4-(4-(4-methylpiperazin-1-yl)piperidin-1-yl)-8-oxo-2,4,9-triaza-3(2,4)-pyrimidina-1(1,3),5(1,4)-dibenzenacyclododecaphane-5^2-yl)-N-methylmethanesulfonamide]
27.9 nM | COc1cc(N(C)CCN(C)C)c2cc1Nc1ncc(Cl)c(n1)Nc1ccc(cc1N(C)S(C)(=O)=O)OCCCCC2 [Compound A5, N-(3^5-chloro-1^4-((2-(dimethylamino)ethyl)(methyl)amino)-1^6-methoxy-6-oxa-2,4-diaza-3(2,4)-pyrimidina-1(1,3),5(1,4)-dibenzenacycloundecaphane-5^2-yl)-N-methylmethanesulfonamide]
2510 nM | COc1cc(N2CCN(C)CC2)c2cc1Nc1ncc(Cl)c(n1)Nc1ccc(cc1C(=O)N(C)C)OCCCCCC2 [Compound A25, 3^5-chloro-1^6-methoxy-N,N-dimethyl-1^4-(4-methylpiperazin-1-yl)-6-oxa-2,4-diaza-3(2,4)-pyrimidina-1(1,3),5(1,4)-dibenzenacyclododecaphane-5^2-carboxamide]
20.3 nM | COc1cc(N2CCN(C)CC2)c2cc1Nc1ncc(Cl)c(n1)Nc1ccc(cc1NS(C)(=O)=O)OCCCCC2 [Compound A16, N-(3^5-chloro-1^6-methoxy-1^4-(4-methylpiperazin-1-yl)-6-oxa-2,4-diaza-3(2,4)-pyrimidina-1(1,3),5(1,4)-dibenzenacycloundecaphane-5^2-yl)methanesulfonamide]
40.5 nM | CCOc1cc(N2CCN(C)CC2)c2cc1Nc1ncc(Cl)c(n1)Nc1ccc(cc1N(C)S(C)(=O)=O)OCCCCC2 [Compound A21, N-(3^5-chloro-1^6-ethoxy-1^4-(4-methylpiperazin-1-yl)-6-oxa-2,4-diaza-3(2,4)-pyrimidina-1(1,3),5(1,4)-dibenzenacycloundecaphane-5^2-yl)-N-methylmethanesulfonamide]
0.3 nM | COc1cc(N2CCC3(CC2)CN(C)C3)c2cc1Nc1ncc(Br)c(n1)Nc1ccc(cc1N(C)S(C)(=O)=O)OCCCCC2 [Compound A38, N-(3^5-bromo-1^6-methoxy-1^4-(2-methyl-2,7-diazaspiro[3.5]nonan-7-yl)-6-oxa-2,4-diaza-3(2,4)-pyrimidina-1(1,3),5(1,4)-dibenzenacycloundecaphane-5^2-yl)-N-methylmethanesulfonamide]
3760 nM | COc1cc(N(C)CCN(C)C)c2cc1Nc1ncc(Cl)c(n1)Nc1ccc(cc1N(C)S(C)(=O)=O)OCCC2 [Compound A7, N-(3^5-chloro-1^4-((2-(dimethylamino)ethyl)(methyl)amino)-1^6-methoxy-6-oxa-2,4-diaza-3(2,4)-pyrimidina-1(1,3),5(1,4)-dibenzenacyclononaphane-5^2-yl)-N-methylmethanesulfonamide]
3.8 nM | COc1cc(N2CCC(N3CCN(C)CC3)CC2)c2cc1Nc1ncc(Br)c(n1)Nc1ccc(cc1N(C)S(C)(=O)=O)CCCNC(=O)CC2 [Compound A42]
2.9 nM | COc1cc(N2CCC(N(C)CCN(C)C)CC2)c2cc1Nc1ncc(Br)c(n1)Nc1ccc(cc1N(C)S(C)(=O)=O)OCCCCC2 [Compound A36, N-(3^5-bromo-1^4-(4-((2-(dimethylamino)ethyl)(methyl)amino)piperidin-1-yl)-1^6-methoxy-6-oxa-2,4-diaza-3(2,4)-pyrimidina-1(1,3),5(1,4)-dibenzenacycloundecaphane-5^2-yl)-N-methylmethanesulfonamide]
